Entries after “also recorded” stand apart in the source; their conditions may differ.
What was measured:
[1] = system: human cancer cell lines (C8161, SKOV3, 231MFP, MUM2C, OVCAR3); assay: Cell migration assay (Transwell); type: cell-based; details: for impaired migration of shMAGL cancer cells: 100 nM; for migration of MUM2C and OVCAR3 cells / migratory activity of shMAGL or JZL184-treated MAGL-OE cancer cells: 20 μM; for migration of cancer cells: 100 μM, 4 hr preincubation and coincubation with migration
Protocol: Cell migration, cell survival, and invasion studies. Migration assays were performed in Transwell chambers (Corning) with 8 μm pore-sized membranes coated with 10 μg/ml collagen for 4 h at 37° C. A total of 24 hr before the start of the migration assay, cancer cell lines were plated at a concentration of 1×10^6 cells per 6 cm dish. At the start of the migration assay, cells were harvested by washing two times with PBS and were then serum starved in serum-free media for 4 hr. Inhibitor, lipid or vehicle (0.1% DMSO) were preincubated with the cells during this 4 h time. Serum-starved cells were trypsinized, spun at 1400×g for 3 min, resuspended, and counted. 50,000 cells were seeded in the upper chamber of the transwells in 200 μl serum-free media (containing inhibitor, lipid or vehicle). Inhibitor, lipid or vehicle was also added to the lower chamber, and cells were allowed to migrate for 5 h (for C8161 and 231MFP cells) or 20 hr (SKOV3, MUM2C and OVCAR3 cells). The filters were then fixed and stained with Diff-Quik (Dade Behring). Cells that had not migrated through the chamber were removed with a cotton ball. The cells that migrated were counted at a magnification of 400×, and 4 fields were independently counted from each migration chamber. An average of cells in 4 fields for one migration chamber represents n=1.

[2] = system: human cancer cell lines (C8161, SKOV3, 231MFP, MUM2C, OVCAR3); assay: Lipid measurements in cancer cells; type: cell-based; details: 4 hr
Protocol: Pharmacological inhibition of MAGL in cancer cells. Pharmacological inhibition studies were conducted as described previously (Chiang et al., Chem. Biol. 13:1041-1050, 2006). Cancer cells were maintained in RPMI medium 1640 with 10% (v/v) fetal calf serum at 37° C. in a humidified atmosphere of 5% CO2/95% air. At 80% confluency, cells were trypsinized and counted using a hemocytometer, and 1×10^6 cells were plated in 6 cm dishes (subconfluent). […] After incubation for 4 hr, the cells were harvested and analyzed by ABPP or LC-MS.
Lipid measurements in cancer cells. Lipid measurements were conducted similarly to protocols described previously (Chiang et al., 2006; supra). Cancer cells were grown in serum-free media for 4 hrs to minimize the contribution of serum-derived lipids to the cellular profiles. The cells (1×10^6 cells/6 cm dish, 80% confluency) were washed with twice with phosphate buffer saline (PBS), isolated by centrifugation at 1,400×g, and dounce-homogenized in 4 ml of a 2:1:1 mixture of chloroform:methanol:Tris buffer. Samples were homogenized in the presence of the following synthetic standards: C12:0 MAGE (10 nmol), C15:0 FFA (10 nmol). Organic and aqueous layers were separated by centrifugation at 2000×g for 5 min and the organic layer was collected. The aqueous layer was acidified (for metabolites such as LPA) by adding 5% formic acid, followed by the addition of 2 ml chloroform. The mixture was vortexed, and the organic layers were combined, dried down under N2 and dissolved in 100 μl chloroform, of which 30 μl was analyzed by LC-MS.
LC-MS analysis was performed by using an Agilent 1100 LC-MSD SL instrument. […] Mobile phase A was composed of a 95:5 ratio of water:methanol, and mobile phase B consisted of 2-propanol, methanol, and water in a 60:35:5 ratio. Solvent modifiers such as 0.1% formic acid and 0.1% ammonium hydroxide were used to assist ion formation as well as to improve the LC resolution in both positive and negative ionization modes, respectively. The flow rate for each run started at 0.1 ml/min for 5 min, to alleviate backpressure associated with injecting chloroform. The gradient started at 0% B and increased linearly to 100% B over the course of 45 min with a flow rate of 0.4 ml/min, followed by an isocratic gradient of 100% B for 17 min at 0.5 ml/min before equilibrating for 8 min at 0% B with a flow rate of 0.5 ml/min. MS analysis was performed with an electrospray ionization (ESI) source. The capillary voltage was set to 3.0 kV, and the fragmentor voltage was set to 100 V. The drying gas temperature was 350° C., the drying gas flow rate was 10 L/min, and the nebulizer pressure was 35 psi.
Lipidomic analysis was performed in both targeted and untargeted mode by LC-MS analysis. Standard lipid classes were quantitated by targeting using selected ion monitoring (SIM) (except for very high-abundance metabolites which were quantitated by untargeted analysis) and identities of metabolites were confirmed by coelution of metabolites with their respective standards and mass accuracy to within 10 ppm as determined with an accurate mass Agilent 6520 Accurate Mass QTOF-MS-MS. These lipids were quantified by measuring the area under the peak and were normalized to an internal standard (C12:0 MAGE in positive mode or C15:0 FFA in negative mode). […]

MAGL = biological target: T1, MAGL (Mus musculus, UniProt O35678); assay: Competitive ABPP, mouse brain membrane proteome; type: biochemical
T1 construct: from tissue; host or cells: mouse brain membrane fraction (C57Bl/6 mice for the in vivo studies)
T1 sequence (O35678 1-303): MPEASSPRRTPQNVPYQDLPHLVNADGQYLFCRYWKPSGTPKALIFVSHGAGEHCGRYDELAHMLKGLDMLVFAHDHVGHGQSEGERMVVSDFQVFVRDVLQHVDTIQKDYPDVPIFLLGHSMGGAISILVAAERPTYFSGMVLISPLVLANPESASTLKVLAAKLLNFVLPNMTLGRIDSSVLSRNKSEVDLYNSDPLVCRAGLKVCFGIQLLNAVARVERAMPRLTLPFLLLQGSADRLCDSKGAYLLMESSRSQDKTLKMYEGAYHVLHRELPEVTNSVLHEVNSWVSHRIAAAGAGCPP
Excerpt: First, serine hydrolases are susceptible to covalent inactivation by specific chemical groups that show little or no cross-reactivity with other enzyme classes. […] Second, the functional state of serine hydrolases can be collectively profiled in native biological systems using activity-based protein profiling (ABPP) methods (Cravat et al., Annu Rev Biochem 77:383-414, 2008). ABPP of serine hydrolases uses reporter-tagged fluorophosphonates (FPs), which serve as general activity-based probes for this large and diverse enzyme class (Liu et al., Proc. Natl. Acad. Sci. U.S.A. 96:14694-9, 1999). When performed in a competitive mode, ABPP can serve as a powerful screen to evaluate the potency and selectivity of small-molecule enzyme inhibitors directly in complex proteomes. The screen can be performed as described in the art, e.g., Liu et al., Proc. Natl. Acad. Sci. U.S.A. 96:14694-9, 1999; Li et al., J. Am. Chem. Soc. 129:9594-5, 2007; Leung et al., Nat. Biotech. 21:687-91, 2003; and Greenbaum et al., Mol. Cell. Proteomics 1:60-68, 2002.
Competitive activity-based protein profiling (ABPP) experiments. In vitro inhibitor selectivity was examined using a competitive ABPP method as described in the art (e.g., Li et al., J. Am. Chem. Soc. 129:9594-5, 2007; and Leung et al., Nat. Biotech. 21:687-91, 2003). Briefly, mouse brain membrane proteomes, prepared as described herein, were diluted to 1 mg/ml in PBS and pre-incubated with varying concentrations of inhibitors (1 nM to 10 μM) for 30 min at 37° C. prior to the addition of a FP-rhodamine at a final concentration of 2 μM in a 50 μl of total reaction volume. After 30 min at room temperature, the reactions were quenched with 4×SDS-PAGE loading buffer, boiled for 5 min at 90° C., subjected to SDS-PAGE, and visualized in-gel using a flatbed fluorescence scanner.
Every 10 min, 50 ul of the reaction was removed and treated with FP-rhodamine (2 μM) for 2 min, quenched with 4×SDS-PAGE loading buffer, and boiled for 5 min at 90° C. The combined reactions were subjected to SDS-PAGE and visualized in-gel using a flatbed fluorescence scanner. The percentage activity remaining was determined by measuring the integrated optical density corresponding to the MAGL or FAAH bands and the results were fit to an exponential curve to determine the pseudo-first order rate constants.

pertussis toxin
enhanced migratory activity of MAGL-OE cancer cells ([1]; 100 ng/ml, 4 h): completely blocked

CCCCC[C@H](O)/C=C/[C@H]1[C@H](O)CC(=O)[C@@H]1C/C=C\CCCC(=O)O [PGE2, prostaglandin E2]
impaired migration of shMAGL cancer cells ([1]; 4 hr): rescued the impaired migration

CCCCCCCCCCCCCCCCCC(=O)O [stearic acid]
migration of MUM2C and OVCAR3 cells ([1]; 4 h): increases the migration
migratory activity of shMAGL or JZL184-treated MAGL-OE cancer cells ([1]; 4 h): fully restored their migratory activity

CCOC(=O)[C@@]1(CCCCCCOc2ccc(Cl)cc2)CO1 [etomoxir]
FFA levels in cancer cells ([2]; 100 μM, exception C20:4 FFA, elevated in C8161 and SKOV3 cells): did not alter FFA levels
migration of cancer cells [1]: did not affect migration

CCCCCCCCCCCCCCCC(=O)O [palmitic acid]
migration of MUM2C and OVCAR3 cells ([1]; 4 h): increases the migration
migratory activity of shMAGL or JZL184-treated MAGL-OE cancer cells ([1]; 4 h): fully restored their migratory activity

COc1ccc(C(O)(c2ccc(OC)cc2)C2CCN(C(=O)Oc3ccc([N+](=O)[O-])cc3)CC2)cc1 [JZL175]
selectivity for MAGL over FAAH and ABHD6 (competitive ABPP) (MAGL): selectivity for MAGL over both FAAH and ABHD6; also recorded: no or greatly reduced inhibitory activity on FAAH as well as ABHD6

COc1ccc(C(=O)c2c(C)n(CCN3CCOCC3)c3cc(I)ccc23)cc1 [AM630]
FFA levels in shControl and shMAGL cancer cells ([2]; antagonist 1 μM): unchanged
migratory defect in shMAGL cancer cells ([1]; antagonist 1 μM, 4 hr): not rescued

CCCCCCCCCCCCCCCC(=O)OC[C@@H](O)COP(=O)(O)O [LPA]
impaired migration of shMAGL cancer cells ([1]; 4 hr): rescued the impaired migration

COc1ccc(CN2CCNCC2)c(OC)c1OC [trimetazidine]
migration of cancer cells [1]: did not affect migration

Reference: patent US8772318B2, “Methods and compositions related to targeting monoacylglycerol lipase” (The Scripps Research Institute, priority 2008, dated 2014)
